Measurements from US20080255079A1, “Therapeutic Use of Nefopam and Analogues Thereof” (priority 2005, published 2008).
Structures can show the parent of a compound that is named as a salt. Marks after values point to notes of the source that are not given here.

Experiments:
[1] = tested on: formalin-induced paw licking model in mice; assay: Formalin-induced hyperalgesia (paw licking) in mouse; assay type: in vivo; conditions: for Nociception, hindpaw licking time, early phase: early phase (0-5 min after formalin); for Nociception, hindpaw licking time, early phase / Nociception, hindpaw licking time, late phase: 60 min before formalin, vs vehicle; for licking behaviour compared to vehicle control, first phase (in words): first phase (acute nociceptive pain), at both 60 and 100 mg/kg; for Nociception, hindpaw licking time, late phase: late phase (20-30 min after formalin); for paw licking time compared to vehicle control (in words): po, both phases; for licking behaviour, second phase (in words): second phase (persistent pain states), 100 mg/kg
Protocol: Nefopam and (+)-nefopam have been evaluated in the formalin-induced paw licking model in mice. […] The late phase seems to be an inflammatory response and is a recognized model of persistent pain. This test may, therefore, be a useful indicator of analgesic efficacy in fibromyalgia. Compounds were evaluated for both an early stage response and a late stage response and compared against morphine as control.
Inflammation was induced by subplantar injection of a 5% formalin solution (0.02 ml) into the mouse right hindpaw (20-25 g male Rj: NMRI). Hindpaw licking time was continuously recorded in a blinded fashion between 0 to 5 minutes (early phase) and between 20 to 30 minutes (late phase) after formalin injection (Hunskaar etal., 1985—J. Neurosci. Methods; 14:69-76).
The test substances and vehicle were orally administered 60 min before formalin injection.

[2] = tested on: mice exposed to marbles (marble burying); assay: Marble Burying Test in mouse; assay type: in vivo; conditions: for Number of marbles buried (% change from ctrl): 30 min before test; for antidepressant and anxiolytic activity (in words): ip
Source text: Nefopam and (+)-nefopam have been evaluated in the Marble Burying Test, a model which detects anxiolytic/tranquillizing activity. The method follows that described by Broekkamp et al. (1986—Eur. J. Pharmacol., 126, 223-229). Mice exposed to novel object (marbles) will bury them in the sawdust floor covering. Anxiolytics decrease the number of marbles buried at non-sedative doses.
Mice are individually placed in transparent plastic cages (33×21×18 cm) with 5 cm of sawdust on the floor, and 25 marbles grouped in the centre of the cage. The cage is covered with an inverted plastic cage. Each test cage, together with the marbles, is impregnated with mouse odor beforehand, by leaving 10 mice in the cage for 15 minutes. These mice then play no further role in the experiment. The number of marbles covered by sawdust (⅔ or more) is counted at the end of a 30 minute test.
All compounds were administered i.p. 30 minutes before the test, and compared with a vehicle control group. Clobazam (8 mg/kg i.p.), administered under the same experimental conditions, was used as reference substance.

[3] = tested on: mice forced to swim (duration of immobility); assay: Behavioural Despair Test in mouse; assay type: in vivo; conditions: for Duration of Immobility (% change from ctrl): 30 min before test; for anti-depressant activity (in words): ip
Protocol: Nefopam and (+)-nefopam have been evaluated in the Behavioural Despair Test, a model which detects antidepressant activity. This test was conducted according to the method of Porsolt et al., (1977—Arch. Int. Pharmacodyn., 229:327-336), in which mice are forced to swim in a situation from which they cannot escape rapidly become immobile. Antidepressants decrease the duration of immobility.
Mice (20-27 g male Rj: NMRI) were individually placed in a cylinder (height=24 cm, diameter=13 cm) containing 10 cm water (22° C.) from which they cannot escape. The mice were placed in the water for 6 minutes and the duration of immobility during the last 4 minutes was measured. All compounds were administered i.p. 30 minutes before the test, and compared with a vehicle control group. Imipramine (32 mg/kg i.p.), administered under the same experimental conditions, was used as reference substance.

[4] = conventional release preparations; cited from earlier work

| Structure (SMILES) | Nociception, hindpaw licking time, early phase ([1]; 30 mg/kg po) [%] | Nociception, hindpaw licking time, early phase ([1]; 60 mg/kg po) [%*] | Nociception, hindpaw licking time, early phase ([1]; 100 mg/kg po) [%*] | licking behaviour compared to vehicle control, first phase (in words) [1] | Nociception, hindpaw licking time, late phase ([1]; 30 mg/kg po) [%] | Nociception, hindpaw licking time, late phase ([1]; 60 mg/kg po) | Nociception, hindpaw licking time, late phase ([1]; 100 mg/kg po) [%*] | paw licking time compared to vehicle control (in words) [1] | licking behaviour, second phase (in words) [1] | Number of marbles buried (% change from ctrl) ([2]; 10 mg/kg ip) | Number of marbles buried (% change from ctrl) ([2]; 20 mg/kg ip) | Number of marbles buried (% change from ctrl) ([2]; 40 mg/kg ip) | antidepressant and anxiolytic activity (in words) [2] | Duration of Immobility (% change from ctrl) ([3]; 20 mg/kg ip) | Duration of Immobility (% change from ctrl) ([3]; 40 mg/kg ip) | Duration of Immobility (% change from ctrl) ([3]; 60 mg/kg ip) | anti-depressant activity (in words) [3] | other results |
| --- | --- | --- | --- | --- | --- | --- | --- | --- | --- | --- | --- | --- | --- | --- | --- | --- | --- | --- |
| CN1CCO[C@@H](c2ccccc2)c2ccccc2C1 [(+)-Nefopam] | −40 | −59 | −86 | significant reduction in licking behaviour | −31 | −69% | −90 | dose-dependently decreased paw licking time | significant reduction in licking behaviour | −56 * % change from ctrl | −99 * % change from ctrl | −100 * % change from ctrl | significant antidepressant and anxiolytic activity | −38 | −92 * % change from ctrl | −100 * % change from ctrl | significant anti-depressant activity |  |
| CN1CCOC(c2ccccc2)c2ccccc2C1 (racemic) [Nefopam, 5-methyl-1-phenyl-3,4,5,6-tetrahydro-1H-2,5-benzoxazocine hydrochloride] | −28 | −64 | −85 | significant reduction in licking behaviour | −41 | −63%* | −89 | dose-dependently decreased paw licking time | significant reduction in licking behaviour | −66 * % change from ctrl | −98 * % change from ctrl | −100 * % change from ctrl | significant antidepressant and anxiolytic activity | −42 | −85 * % change from ctrl | −100 * % change from ctrl | significant anti-depressant activity | elimination half-life [4]: four |
| CN1CC[C@]23c4c5ccc(O)c4O[C@H]2[C@@H](O)C=C[C@H]3[C@H]1C5 [Morphine] |  |  |  |  |  |  |  |  |  |  |  |  |  |  |  |  |  | Nociception, hindpaw licking time, early phase ([1]; 80 mg/kg po): −98%*; Nociception, hindpaw licking time, late phase ([1]; 80 mg/kg po): −98%* |
| CN1C(=O)CC(=O)N(c2ccccc2)c2cc(Cl)ccc21 [Clobazam] |  |  |  |  |  |  |  |  |  |  |  |  |  |  |  |  |  | Number of marbles buried (% change from ctrl) ([2]; 32 mg/kg ip): −75 * % change from ctrl |
| CN(C)CCCN1c2ccccc2CCc2ccccc21 [Imipramine] |  |  |  |  |  |  |  |  |  |  |  |  |  |  |  |  |  | Duration of Immobility (% change from ctrl) ([3]; 32 mg/kg ip): −80 * % change from ctrl |
